Measurements taken from patent US12319674B2, “Isatin derivatives” (KING SAUD UNIVERSITY, priority 2020, dated 2025).

Assays:
Assay in all cases: NCI-60 Human Tumor Cell Lines Screen, one-dose screen
Format in all cases: cell-based
[1] = tested on: Breast Cancer cells (MDA-MB-468); conditions: MDA-MB-468 cells, 10^-5 M, 2 days
Method: (§1) Anticancer activities of the exemplary isatin derivatives were tested by the NIH National Cancer Institutes (NCI), with results summarized in FIGS. 2A-3B. The anticancer activity was tested by NCI, division of cancer treatment and diagnosis, according to the NCI-60 Human Tumor Cell Lines Screen, one-dose screen (https://dtp.cancer.gov/discovery_development/nci-60/methodology.htm). This screening allows for qualified synthesized chemicals to be subjected to an anticancer test against 60 different cancer cell lines. Briefly, exemplary T1 or T2 was dissolved in DMSO:Glycerol, 9:1, at 4 mmol and kept frozen prior to use. For inoculation, a 96 well microtiter was used for the study of different cell lines. Based on the doubling time for each cell line, the well density varied. The plates were incubated at 37° ° C., 5% CO2, 95% air and 100% relative humidity for 1 day. The exemplary T1 or T2 or a control were added to the plates at a concentration of 10^−5 M. After 2 more days, the plates were fixed and stained to identify growth inhibition relative to cells without drug treatment. Anti-proliferative activity was determined based on careful analysis of historical DTP screening data. Cell death and net growth inhibition were determined based on a time zero control. A value of 100 indicates no growth inhibition. A value of 40 indicates 60% growth inhibition. A value of 0 indicates no net growth over the course of the experiment. A value of −40 indicates 40% lethality.

[2] = tested on: Non-Small Cell Lung Cancer cells (EKVX); conditions: 10^-5 M, 2 days
Method: as §1

[3] = tested on: Melanoma cells (MDA-MB-435); conditions: MDA-MB-435 cells, 10^-5 M, 2 days
Method: as §1

[4] = tested on: Renal Cancer cells (CAKI-1); conditions: CAKI-1 cells, 10^-5 M, 2 days
Method: as §1

Compound | anticancer activity compared to control (reduction) [1] [%] | anticancer activity compared to control (reduction) [2] [%] | anticancer activity compared to control (reduction) [3] [%] | anticancer activity compared to control (reduction) [4] [%]
O=C1Nc2ccc(Cl)cc2/C1=N/N=C/c1ccsc1 [T2, 5-chloro-3-((E)-(thiophen-3-ylmethylene) hydrazono) indolin-2-one] | ~73 |  |  | 
O=C1Nc2ccccc2/C1=N\N=Cc1cccs1 [T1, 3-((E)-(thiophen-2-ylmethylene)hydrazono)indolin-2-one] |  | ~54 | ~83 | ~48
